Measured values: patent USRE38506E1, “Potent inducers of terminal differentiation and methods of use thereof” (Sloan-Kettering Institute for Cancer Research, priority 1991, dated 2004)

Tested on: MELC 745A-DS19 cells
Assay: Induction of terminal differentiation of murine erythroleukemia cells (benzidine reactivity)
Format: cell-based
Conditions: for Benzidine Reactive Cells: at optimal concentration; for Optimal Conc.: Table 1
Method: MELC 745A-DS19 cells and the variants of MELC derived from this cell line, namely, the vincristine-resistant MELC V3.17 and VCR.C(2)15 cell lines (26), and the dimethylsulfoxide-resistant cell line, DR10 (39), were maintained in alpha minimal essential medium containing 10% fetal calf serum (16). Cell cultures for all experiments were initiated with cells in logarithmic growth phase (day 2 cultured cells) at a density of 10^5 cells/ml. Inducer compounds were added in the final concentrations indicated below, dissolved in culture medium without fetal calf serum unless otherwise indicated. Cell density and benzidine reactively were determined as described (16).
Commitment to terminal differentiation, characterized by limited cell division (colony size<32 cells) and accumulation of hemoglobin (benzidine reactive colonies) was assayed by a colony cloning assay using 2% methylcellulose as described (25) (see Table 1 for results). HL-60 human leukemia cells, derived from peripheral blood leukocytes of a patient with acute promyelocytic leukemia (40). Induced differentiation of HL-60 cells assayed by determining the proportion of cells that developed the capacity to reduce nitroblue tetrazolium (NBT) (41) (see Table 2 for results).

Row | Structure (SMILES) | Benzidine Reactive Cells [%] | Optimal Conc. [µM]
1 | N#CCCCCCC(=O)NO [compound 14] | 30 | 
2 | O=C(CCCCCCC(=O)Nc1cccc([N+](=O)[O-])c1)NO [compound 24] | 30 | 5
3 | O=C(CCCCCCC(=O)Nc1cc(F)cc(F)c1)NO [compound 50] | 73 | 2
4 | O=C(CCCCCCC(=O)NCc1ccccc1)NO [compound 19] | 24 | 
5 | O=C(CCCCCCC(=O)Nc1ccccc1F)NO [compound 32] | 65 | 4
6 | O=C(CCCCCCC(=O)Nc1ccc(F)c(F)c1)NO [compound 47] | 61 | 4
7 | O=C(O)CCCCCCC(=O)NC1CCCCC1 [compound 9] | 20 | 
8 | COC(=O)CCCCCCC(=O)NO [compound 13] | 17 | 
9 | O=C(CCCCCCC(=O)Nc1cc(F)c(F)c(F)c1)NO [compound 48] | 55 | 8
10 | O=C(O)CCCCCCC(=O)Nc1ccc(OCc2ccccc2)cc1 [compound 10] | 26 | 250
11 | O=C(CCCCCCC(=O)Nc1cccc(Cl)c1)NO [compound 30] | 33 | 2
12 | O=C(CCCCCCC(=O)Nc1ccccc1Cl)NO [compound 39] | 34 | 4
13 | O=C(CCCCCCC(=O)Nc1cc(F)ccc1F)NO [compound 49] | 70 | 4
14 | O=C(O)CCCCCCC(=O)Nc1ccc([N+](=O)[O-])cc1 [compound 8] | 32 | 
15 | O=C(CCCCCCCCC(=O)Nc1ccccc1)NO [compound 5] | 15 | 20
16 | O=C(CCCCCCC(=O)Nc1ccc(F)cc1)NO [compound 34] | 43 | 4

Row | Structure (SMILES) | Benzidine Reactive Cells [%] | Optimal Conc. [µM]
17 | O=C(CCCCCCC(=O)Nc1c(F)c(F)c(F)c(F)c1F)NO [compound 46] | 53 | 31
18 | O=C(CCCCCCC(=O)Nc1c(F)ccc(F)c1F)Nc1c(F)ccc(F)c1F [compound 62] | 28 | 250
19 | O=C(CCCCCCC(=O)Nc1cccc(F)c1F)NO [compound 41] | 24 | 8
20 | CC(CCC(=O)NO)CCC(=O)NO [compound 68] | 56 | 
21 | O=C(CCCCCCCC(=O)Nc1ccccc1)NO [compound 4] | 8 | 20
22 | CC(C)(C)ONC(=O)CCCCCCC(=O)NO [compound 18] | 38 | 
23 | O=C(CCCCCCC(=O)Nc1c(F)cc(F)cc1F)NO [compound 44] | 47 | 16
24 | O=C(CCCCC(=O)Nc1ccccc1)NO [compound 1] | 70 | 80
25 | O=C(CCCCCCC(=O)Nc1cc(F)cc(F)c1)Nc1cc(F)cc(F)c1 [compound 61] | 31 | 125
26 | COc1ccc(NC(=O)CCCCCCC(=O)NO)cc1 [compound 53] | 37 | 6
27 | CONC(=O)CCCCCCC(=O)NO [compound 15] | 43 | 
28 | O=C(CCCCCCC(=O)Nc1ccc(Br)cc1)NO [compound 40] | 47 | 1.6
29 | O=C(CCCCCCC(=O)Nc1cccc(F)c1)NO [compound 33] | 25 | 1
30 | N#Cc1ccccc1NC(=O)CCCCCCC(=O)NO [compound 23] | 65 | 16
31 | O=C(CCCCCC(CCCCCC(=O)NO)C(=O)NO)NO [compound 69] | 40 | 
32 | O=C(CCCCCCC(=O)Nc1ccc(F)cc1F)NO [compound 45] | 60 | 6
